Where two headings read alike, the source gives them in different places.
Tests used:
[1] = system: HCMV Strain AD169 in MRC-5 cells; experiment: Viral qPCR assay HCMV (V0/V1, V2/V3), EC50; format: cell-based
In short: (§1)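 Infected cells added to compounds (10-point 3-fold series), ~72 h at 37 °C, then lysed; viral genomes by TaqMan qPCR against plasmid standard, normalized to PPIA in V0/V1 only, EC50 from 4-parameter fit. HCMV AD169, 0.05-0.1 pfu/cell, ± 50% FBS; VZV 0.04-0.1 pfu/cell; HSV-1 F 0.0005-0.004 pfu/cell.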

[2] = target: T1, varicella zoster virus DNA polymerase (Varicella-zoster virus, UniProt P09252); experiment: VZV polymerase assay (AlphaLISA, IC50); format: biochemical; details: polymerase assay of Example 190
T1 construct: made in house; host or cells: SF21 insect cells (baculovirus vector)
In short: (§2)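 Baculovirus-expressed polymerase (HCMV 0.2 nM, VZV 0.4 nM final) preincubated 30 min at room temperature with compound in pH 7.5 HEPES buffer; reaction started with 1.6 nM DIG-primer/template and nM dNTPs including biotin-dUTP, run 60 min at 37° C. Incorporation detected by AlphaLISA; IC50 from 4-parameter fit.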

[3] = system: HSV-1 Strain F in Vero or MRC5 cells; experiment: Viral qPCR assay HSV-1 (V0/V1, V2/V3), EC50; format: cell-based
In short: as §1

[4] = target: T2, Human cytomegalovirus DNA polymerase (Human cytomegalovirus, UniProt P08546); experiment: HCMV polymerase assay (AlphaLISA, IC50); format: biochemical; details: polymerase assay of Example 190
T2 construct: made in house; host or cells: SF21 insect cells (baculovirus vector)
In short: as §2

[5] = system: VZV in MeWo or MRC5 cells; experiment: Viral qPCR assay VZV (V0/V1, V2/V3), EC50; format: cell-based
In short: as §1

[6] = Human betaherpesvirus 5, AD169, MRC5, viral qPCR assay of Example 191, read-out: HCMV Cell (EC50)
[7] = Human alphaherpesvirus 1, Vero, VERO cells, 10%, read-out: HSV1 Cell (EC50) VERO 10%
[8] = Human alphaherpesvirus 3, MeWo, MEWO cells, 10%, read-out: VZV Cell (EC50) MEWO 10%
[9] = Human alphaherpesvirus 3, MRC5, MRC5 cells, 10%, read-out: VZV Cell (EC50) MRC5 10%
[10] = Human alphaherpesvirus 1, MRC5, MRC5 cells, 10%, read-out: HSV1 Cell (EC50) MRC5 10%

T1 sequence (P09252 whole entry): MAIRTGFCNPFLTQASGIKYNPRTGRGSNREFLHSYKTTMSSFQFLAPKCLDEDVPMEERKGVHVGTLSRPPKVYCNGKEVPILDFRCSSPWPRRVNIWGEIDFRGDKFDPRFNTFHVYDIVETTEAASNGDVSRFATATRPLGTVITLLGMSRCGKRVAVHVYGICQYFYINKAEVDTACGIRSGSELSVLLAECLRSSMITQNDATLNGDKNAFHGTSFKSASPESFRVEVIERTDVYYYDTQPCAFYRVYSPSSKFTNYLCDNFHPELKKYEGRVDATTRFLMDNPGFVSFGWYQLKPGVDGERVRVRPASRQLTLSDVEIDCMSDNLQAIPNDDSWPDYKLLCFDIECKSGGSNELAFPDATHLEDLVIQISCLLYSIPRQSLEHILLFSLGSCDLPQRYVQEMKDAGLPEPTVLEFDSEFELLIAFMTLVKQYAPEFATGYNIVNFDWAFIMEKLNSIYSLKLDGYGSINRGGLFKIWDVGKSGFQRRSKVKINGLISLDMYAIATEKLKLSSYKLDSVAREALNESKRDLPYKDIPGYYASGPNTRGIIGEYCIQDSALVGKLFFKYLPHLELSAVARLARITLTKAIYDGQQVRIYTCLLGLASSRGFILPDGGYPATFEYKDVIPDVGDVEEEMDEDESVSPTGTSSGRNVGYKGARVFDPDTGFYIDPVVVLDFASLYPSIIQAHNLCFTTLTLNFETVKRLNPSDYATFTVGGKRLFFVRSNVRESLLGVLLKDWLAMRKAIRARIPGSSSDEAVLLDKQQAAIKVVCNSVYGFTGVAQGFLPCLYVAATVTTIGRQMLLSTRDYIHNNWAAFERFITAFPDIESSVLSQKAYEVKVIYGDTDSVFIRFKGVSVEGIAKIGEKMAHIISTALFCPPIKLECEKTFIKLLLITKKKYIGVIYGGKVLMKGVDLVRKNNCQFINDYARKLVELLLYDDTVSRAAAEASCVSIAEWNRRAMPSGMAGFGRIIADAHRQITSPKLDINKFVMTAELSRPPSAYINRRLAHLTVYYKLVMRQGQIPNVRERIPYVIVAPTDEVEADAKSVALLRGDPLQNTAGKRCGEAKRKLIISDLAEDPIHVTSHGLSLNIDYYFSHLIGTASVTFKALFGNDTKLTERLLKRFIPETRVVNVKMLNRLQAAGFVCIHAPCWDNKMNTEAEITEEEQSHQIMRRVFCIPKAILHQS
T2 sequence (P08546 whole entry): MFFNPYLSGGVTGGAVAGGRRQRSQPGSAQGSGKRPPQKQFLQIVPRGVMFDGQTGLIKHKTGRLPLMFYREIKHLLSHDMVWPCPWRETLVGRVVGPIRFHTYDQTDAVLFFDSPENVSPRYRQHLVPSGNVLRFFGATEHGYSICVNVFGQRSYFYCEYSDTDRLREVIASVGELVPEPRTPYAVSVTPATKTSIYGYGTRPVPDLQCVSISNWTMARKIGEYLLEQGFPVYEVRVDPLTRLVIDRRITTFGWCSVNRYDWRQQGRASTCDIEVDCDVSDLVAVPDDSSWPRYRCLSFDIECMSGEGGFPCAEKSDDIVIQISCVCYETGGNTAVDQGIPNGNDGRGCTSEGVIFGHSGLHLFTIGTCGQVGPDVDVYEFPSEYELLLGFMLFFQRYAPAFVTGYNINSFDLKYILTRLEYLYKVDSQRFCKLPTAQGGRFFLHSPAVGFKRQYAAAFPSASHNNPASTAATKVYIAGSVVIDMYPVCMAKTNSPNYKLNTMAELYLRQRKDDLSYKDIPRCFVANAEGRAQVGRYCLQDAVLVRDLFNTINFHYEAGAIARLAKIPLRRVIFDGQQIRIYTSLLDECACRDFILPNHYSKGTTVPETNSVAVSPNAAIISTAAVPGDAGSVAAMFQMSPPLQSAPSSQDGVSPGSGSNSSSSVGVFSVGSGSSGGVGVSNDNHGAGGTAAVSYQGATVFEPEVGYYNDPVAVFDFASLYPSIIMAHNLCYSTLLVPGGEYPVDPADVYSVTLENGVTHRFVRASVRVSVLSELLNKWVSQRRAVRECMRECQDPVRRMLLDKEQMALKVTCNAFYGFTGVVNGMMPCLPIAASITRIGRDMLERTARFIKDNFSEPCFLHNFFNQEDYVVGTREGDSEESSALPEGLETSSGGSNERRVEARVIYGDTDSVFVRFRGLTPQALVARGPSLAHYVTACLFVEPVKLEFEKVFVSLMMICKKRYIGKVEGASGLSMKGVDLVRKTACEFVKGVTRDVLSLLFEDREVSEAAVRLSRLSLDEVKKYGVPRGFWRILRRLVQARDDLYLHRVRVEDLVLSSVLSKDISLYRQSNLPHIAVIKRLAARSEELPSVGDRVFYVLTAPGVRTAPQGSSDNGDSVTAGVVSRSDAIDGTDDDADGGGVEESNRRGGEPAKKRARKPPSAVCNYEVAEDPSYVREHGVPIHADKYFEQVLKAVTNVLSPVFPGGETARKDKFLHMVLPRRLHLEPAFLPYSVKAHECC

| Structure (SMILES) | IC50 [2] | IC50 [4] | EC50 [1, 6] | EC50 [3, 7] | EC50 [5, 8] | EC50 [5, 9] | EC50 [3, 10] | EC50 ([1]; Human betaherpesvirus 5, AD169, MRC5, read-out: HCMV Cell (EC50)) | EC50 ([3]; Human alphaherpesvirus 1, Vero, read-out: HSV1 Cell (EC50) VERO 10%) | EC50 ([5]; Human alphaherpesvirus 3, MeWo, read-out: VZV Cell (EC50) MEWO 10%) |
| --- | --- | --- | --- | --- | --- | --- | --- | --- | --- | --- |
| O=C(NCc1ccc(Cl)cc1)c1cc(O[C@H]2CCN3C(=O)OC[C@@H]3C2)c(CN2CCCOCC2)cn1 [Compound 138] | 0.0137 µM | 0.0658 µM | 0.296 µM | 0.419 µM | 0.198 µM | – | – | – | – | – |
| O=C(NCc1ccc(Cl)cc1)c1cc(O[C@H]2CCN3C(=O)OC[C@@H]3C2)c(CN2CCSCC2)cn1 [Compound 139] | 0.0133 µM | 0.033 µM | 0.417 µM | 0.545 µM | – | 1.18 µM | – | – | – | – |
| O=C(NCc1ccc(Cl)cc1)c1cc(O[C@H]2CCN3C(=O)OC[C@@H]3C2)c(CNC2CC2)cn1 [Compound 141] | 0.0448 µM | 0.0775 µM | 0.554 µM | 0.287 µM | – | 2.21 µM | – | – | – | – |
| CN(Cc1cnc(C(=O)NCc2ccc(Cl)cc2)cc1O[C@H]1CCN2C(=O)OC[C@@H]2C1)[C@H]1CCOC1 [Compound 143] | 0.0134 µM | 0.0148 µM | 0.253 µM | 0.471 µM | – | 1.27 µM | – | – | – | – |
| CSc1cnc(C(=O)NCc2ccc(Cl)cc2)cc1O[C@H]1CCN2C(=O)OC[C@@H]2C1 [Compound 147a] | 0.0234 µM | 0.019 µM | 0.245 µM | – | – | 0.623 µM | 0.414 µM | – | – | – |
| CS(=O)(=O)N1CCC(Oc2cc(C(=O)NCc3ccc(Cl)cc3)ncc2Cl)CC1 [Compound 151] | 0.232 µM | 0.238 µM | 5.34 µM | 1.03 µM | 1.41 µM | – | – | – | – | – |
| O=C(NCc1ccc(Cl)cc1)c1cc(O[C@H]2CCN3C(=O)OC[C@@H]3C2)c(C2CC2O)cn1 (stereo partly drawn) [Compound 154] | 0.0114 µM | 0.0367 µM | 0.255 µM | – | – | 0.896 µM | 0.662 µM | – | – | – |
| COC/C=C/c1cnc(C(=O)NCc2ccc(Cl)cc2)cc1O[C@H]1CCN2C(=O)OC[C@@H]2C1 [Compound 155b] | 0.00956 µM | 0.0085 µM | 0.38 µM | 0.209 µM | – | 0.395 µM | 0.263 µM | – | – | – |
| Cn1cc(-c2cnc(C(=O)NCc3ccc(Cl)cc3)cc2OC2CCN3C(=O)OCC3(C)C2)cn1 (stereo not drawn) [Compound 159] | 0.0193 µM | 0.0592 µM | 0.441 µM | 0.329 µM | 0.277 µM | – | – | – | – | – |
| O=C(NCc1ccc(Cl)cc1)c1cc(O[C@H]2CCN3C(=O)CC[C@@H]3C2)c(-c2cnn(C(F)F)c2)cn1 [Compound 166] | 0.00858 µM | 0.00949 µM | 0.565 µM | – | – | 0.241 µM | 0.37 µM | – | – | – |
| Cn1cc(-c2cnc(C(=O)NCc3ccc(Cl)cc3)cc2OC2CCC(C#N)CC2)cn1 (stereo not drawn) [Compound 168] | 0.0676 µM | 0.104 µM | 1.11 µM | 0.529 µM | 0.59 µM | – | – | – | – | – |
| C[C@@H]1CN(C)CCN1c1cc(C(=O)NCc2ccc(Cl)cc2)ncc1C#N [Compound 175] | 0.0769 µM | 0.0482 µM | 1.22 µM | – | – | 3.32 µM | 3.39 µM | – | – | – |
| C[C@@H]1CN(C)CCN1c1cc(C(=O)NCc2ccc(Cl)cc2)ncc1OCC(F)(F)F [Compound 176] | 0.115 µM | 0.218 µM | – | – | – | – | – | 2.48 µM | 2.18 µM | 1.24 µM |

The next lines start with results.

| IC50 [2] | IC50 [4] | Structure (SMILES) | EC50 [1, 6] | EC50 [3, 7] | EC50 [5, 8] | EC50 [5, 9] | EC50 [3, 10] | EC50 ([1]; Human betaherpesvirus 5, AD169, MRC5, read-out: HCMV Cell (EC50)) | EC50 ([3]; Human alphaherpesvirus 1, Vero, read-out: HSV1 Cell (EC50) VERO 10%) | EC50 ([5]; Human alphaherpesvirus 3, MeWo, read-out: VZV Cell (EC50) MEWO 10%) |
| --- | --- | --- | --- | --- | --- | --- | --- | --- | --- | --- |
| 0.00447 µM | 0.00253 µM | O=C(NCc1ccc(Cl)cc1)c1cc(O[C@H]2CCN3C(=O)OC[C@@H]3C2)c(-c2cnc(C(F)F)o2)cn1 [Compound 148] | 0.163 µM | – | – | 0.229 µM | 0.129 µM | – | – | – |
| 0.00631 µM | 0.0164 µM | CCc1noc(-c2cnc(C(=O)NCc3ccc(Cl)cc3)cc2O[C@H]2CCN3C(=O)OC[C@@H]3C2)n1 [Compound 149] | 0.124 µM | – | – | 0.269 µM | 0.125 µM | – | – | – |
| ≤ 0.000444 µM | 0.00776 µM | Cc1cc(-c2cnc(C(=O)NCc3ccc(Cl)cc3)cc2O[C@H]2CCN3C(=O)OC[C@@H]3C2)on1 [Compound 150] | 0.11 µM | – | – | 0.144 µM | 0.0782 µM | – | – | – |
| 0.00471 µM | 0.00737 µM | O=C(NCc1ccc(Cl)cc1)c1cc(O[C@H]2CCN3C(=O)OC[C@@H]3C2)c(/C=C/CO)cn1 [Compound 155] | 0.204 µM | 0.419 µM | – | 0.251 µM | 0.243 µM | – | – | – |
| 0.00237 µM | 0.0183 µM | N#Cc1cnc(C(=O)NCc2ccc(Cl)cc2)cc1O[C@H]1CCN2C(=O)OCC[C@@H]2C1 [Compound 164] | 0.436 µM | – | – | 0.684 µM | 0.469 µM | – | – | – |
| 0.00625 µM | 0.00528 µM | CC(=O)N1CC[C@@H](Oc2cc(C(=O)NCc3ccc(Cl)cc3)ncc2-c2cnc(C)o2)C[C@H]1C [Compound 165] | 0.141 µM | – | – | 0.138 µM | 0.122 µM | – | – | – |
| 0.00855 µM | 0.0286 µM | CC(=O)N1CCC(Oc2cc(C(=O)NCc3ccc(Cl)cc3)ncc2-c2cnn(C(F)F)c2)CC1C (stereo not drawn) [Compound 167] | 0.199 µM | – | – | 0.679 µM | 0.423 µM | – | – | – |

— patent publication US20240067657A1, “AMIDO-SUBSTITUTED PYRIDYL COMPOUNDS AND METHODS OF USE THEREOF FOR THE TREATMENT OF HERPESVIRUSES” (Merck Sharp & Dohme LLC, priority 2020, published 2024)
